Tests used:
[1] = system: U87MG cells; assay: Cytotoxicity assay (cell viability, CellTiter 96 Aqueous MTS); assay type: cell-based; settings: Homo sapiens, U-87 MG, 72 h, 72 hours incubation, starting concentration 50 uM, 9 point half log dilution, average where tested repeatedly
How it was run: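 U87MG cells plated at 7×10^3 cells/well overnight, then treated 72 h with 9-point half-log dilutions from a 50 uM starting concentration. Viability measured with CellTiter 96 Aqueous MTS; IC50 calculated from viability.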

[2] = system: tubulin; assay: Tubulin polymerization assay (Cytoskeleton, Inc. inhibitor screening protocol); assay type: biochemical; settings: 3 μM, 37C, compared to DMSO control
Experimental: Example 4. Tubulin Polymerization Assay
Compounds described herein were tested in a tubulin polymerization inhibition assay using the general manufacturer's protocol for inhibitor screening (Cytoskeleton, Inc. BK01 IP). DMSO was used as a negative control, and vinblastine was tested as a positive control. All compounds were tested at a concentration of 3 μM, and incubation was carried out at 37C for 60 minutes. Results were calculated as a percent inhibition (compared to DMSO control) after 60 min of incubation, the results of which are shown in Table 3.

Row | SMILES | IC50 [1] | % Tubulin Polymerization at 60 min [2]
1 | Cc1ncccc1C(=O)NCCCc1ccc(-c2ccccc2F)cc1 [Compound 81, N-(3-(2′-fluoro-[1,1′-biphenyl]-4-yl)propyl)-2-methylnicotinamide] | < 0.5 µM | A (A is < 20%)
2 | Nc1ncc(C(=O)NCCCc2ccc(-c3ccccc3F)cc2)cn1 [Compound 96] | < 0.5 µM | A (A is < 20%)
3 | COc1ccc(CC(=O)NCCCc2ccc(-c3ccccc3F)cc2)cc1 [Compound 101, N-(3-(2′-fluoro-[1,1′-biphenyl]-4-yl)propyl)-2-(4-methoxyphenyl)acetamide] | < 0.5 µM | C (C is 41-60%)
4 | O=C(NCCCc1ccc(-c2ccccc2F)cc1)c1ccc2[nH]cnc2c1 [Compound 136, N-(3-(2′-fluoro-[1,1′-biphenyl]-4-yl)propyl)-1H-benzo[d]imidazole-5-carboxamide] | < 0.5 µM | A (A is < 20%)
5 | Cc1ncc(C(=O)NCCCc2ccc(-c3ccccc3F)cc2)s1 [Compound 138, N-(3-(2′-fluoro-[1,1′-biphenyl]-4-yl)propyl)-2-methylthiazole-5-carboxamide] | < 0.5 µM | A (A is < 20%)
6 | O=C(CCCc1ccc(-c2ccc3[nH]c(=O)ccc3c2)cc1)Nc1cccnc1 [Compound 207, 4-(4-(2-oxo-1,2-dihydroquinolin-6-yl)phenyl)-N-(pyridin-3-yl)butanamide] | < 0.5 µM | D (D is 61-80%)
7 | O=C(CCCc1ccc(-c2ccc3cnccc3c2)cc1)Nc1cccnc1 [Compound 214, 4-(4-(isoquinolin-6-yl)phenyl)-N-(pyridin-3-yl)butanamide] | < 0.5 µM | F (F is 81-100%)
8 | Cc1ccc(C(=O)NCCCc2ccc(-c3ccc4c(cnn4C)c3)cc2)cn1 [Compound 226, 6-methyl-N-(3-(4-(1-methyl-1H-indazol-5-yl)phenyl)propyl)nicotinamide] | < 0.5 µM | C (C is 41-60%)
9 | Cc1cc(C(=O)NCCCc2ccc(-c3ccc4[nH]ncc4c3C)cc2)no1 [Compound 230, 5-methyl-N-(3-(4-(4-methyl-1H-indazol-5-yl)phenyl)propyl)isoxazole-3-carboxamide] | < 0.5 µM | C (C is 41-60%)
10 | Cn1ncc2cc(-c3ccc(CCCNC(=O)c4cnc(N)nc4)cc3)ccc21 [Compound 232, 2-amino-N-(3-(4-(1-methyl-1H-indazol-5-yl)phenyl)propyl)pyrimidine-5-carboxamide] | < 0.5 µM | C (C is 41-60%)
11 | Cc1cc(C(=O)NCCCc2ccc(-c3cnc4[nH]ccc4c3)cc2)n(C)n1 [Compound 233, N-(3-(4-(1H-pyrrolo[2,3-b]pyridin-5-yl)phenyl)propyl)-1,3-dimethyl-1H-pyrazole-5-carboxamide] | < 0.5 µM | A (A is < 20%)
12 | Cc1cc(C(=O)NCCCc2ccc(-c3ccc4ncccc4c3)cc2)no1 [Compound 239, 5-methyl-N-(3-(4-(quinolin-6-yl)phenyl)propyl)isoxazole-3-carboxamide] | < 0.5 µM | C (C is 41-60%)
13 | Cc1ccc(C(=O)NCCCc2ccc(-c3ccc4[nH]ncc4c3C)cc2)cn1 [Compound 243, 6-methyl-N-(3-(4-(4-methyl-1H-indazol-5-yl)phenyl)propyl)nicotinamide] | < 0.5 µM | A (A is < 20%)
14 | O=C(Nc1ccc2[nH]ccc2c1)N1CCN(c2ccc(-c3ccccc3F)cc2)CC1 [Compound 280, 4-(2′-fluoro-[1,1′-biphenyl]-4-yl)-N-(1H-indol-5-yl)piperazine-1-carboxamide] | < 0.5 µM | F (F is 81-100%)
15 | Cc1ccc(C(=O)NCC2(Cc3ccc(-c4ccc5c(cnn5C)c4)cc3)CC2)cn1 [Compound 303, 6-methyl-N-((1-(4-(1-methyl-1H-indazol-5-yl)benzyl)cyclopropyl)methyl) nicotinamide] | > 5 µM | 
16 | COc1cccc(-c2ccc(CCCNC(=O)c3cnc(C)s3)cc2)c1F [Compound 304, N-(3-(2′-fluoro-3′-methoxy-[1,1′-biphenyl]-4-yl)propyl)-2-methylthiazole-5-carboxamide] | < 0.5 µM | 
17 | Cc1ncc(C(=O)NCCCc2ccc(-c3ccc4c(cnn4C)c3)cc2)s1 [Compound 305, 2-methyl-N-(3-(4-(1-methyl-1H-indazol-5-yl)phenyl)propyl)thiazole-5-carboxamide] | < 0.5 µM | 
18 | O=C(NCCCc1ccc(-c2ccc3ncccc3c2)cc1)c1cncnc1 [Compound 306, N-(3-(4-(quinolin-6-yl)phenyl)propyl)pyrimidine-5-carboxamide] | < 0.5 µM | 
19 | O=C(NCCCc1ccc(-c2cnc3[nH]ccc3c2)cc1)c1cncnc1 [Compound 307, N-(3-(4-(1H-pyrrolo [2,3-b]pyridin-5-yl)phenyl)propyl)pyrimidine-5-carboxamide] | < 0.5 µM | 
20 | Cc1ncc(C(=O)NCCCc2ccc(-c3ccc4[nH]ncc4c3C)cc2)s1 [Compound 308, 2-methyl-N-(3-(4-(4-methyl-1H-indazol-5-yl)phenyl)propyl)thiazole-5-carboxamide] | < 0.5 µM | 
21 | Cc1ncc(C(=O)NCCCc2ccc(-c3cnc4[nH]ccc4c3)cc2)s1 [Compound 309, N-(3-(4-(1H-pyrrolo[2,3-b]pyridin-5-yl)phenyl)propyl)-2-methylthiazole-5-carboxamide] | < 0.5 µM | 
22 | Cc1ncccc1C(=O)NCCCc1ccc(-c2ccc3[nH]ncc3c2C)cc1 [Compound 310, 2-methyl-N-(3-(4-(4-methyl-1H-indazol-5-yl)phenyl)propyl)nicotinamide] | < 0.5 µM | 
23 | Cc1ncccc1C(=O)NCCCc1ccc(-c2cnc3[nH]ccc3c2)cc1 [Compound 311, N-(3-(4-(1H-pyrrolo[2,3-b]pyridin-5-yl)phenyl)propyl)-2-methylnicotinamide] | < 0.5 µM | 
24 | Cc1ccc(C(=O)NCCCc2ccc(-c3ccc4c(c3)OCC(=O)N4)cc2)cn1 [Compound 312, 6-methyl-N-(3-(4-(3-oxo-3,4-dihydro-2H-benzo[b][1,4]oxazin-7-yl)phenyl)propyl)nicotinamide] | < 0.5 µM | 
25 | Cc1cc(C(=O)NCCCc2ccc(-c3ccc4c(c3)OCC(=O)N4)cc2)n(C)n1 [Compound 313, 1,3-dimethyl-N-(3-(4-(3-oxo-3,4-dihydro-2H-benzo[b][1,4]oxazin-7-yl)phenyl)propyl)-1H-pyrazole-5-carboxamide] | < 0.5 µM | 
26 | Cc1ncccc1C(=O)NCCCc1ccc(-c2ccc3c(c2)OCC(=O)N3)cc1 [Compound 314, 2-methyl-N-(3-(4-(3-oxo-3,4-dihydro-2H-benzo[b][1,4]oxazin-7-yl)phenyl)propyl)nicotinamide] | < 0.5 µM | 
27 | Cc1ccc(C(=O)NCCCc2ccc(-c3ccc4[nH]c(=O)ccc4c3)cc2)cn1 [Compound 315, 6-methyl-N-(3-(4-(2-oxo-1,2-dihydroquinolin-6-yl)phenyl)propyl)nicotinamide] | < 0.5 µM | 
28 | COc1ccc(CC(=O)NCCCc2ccc(-c3cnc4[nH]ccc4c3)cc2)cc1 [Compound 316, N-(3-(4-(1H-pyrrolo[2,3-b]pyridin-5-yl)phenyl)propyl)-2-(4-methoxyphenyl)acetamide] | < 0.5 µM | 
29 | COc1cccc(-c2ccc(CCCNC(=O)c3cccnc3C)cc2)c1F [Compound 317, N-(3-(2′-fluoro-3′-methoxy-[1,1′-biphenyl]-4-yl)propyl)-2-methylnicotinamide] | < 0.5 µM | 
30 | CC[C@]1(O)C[C@@H]2CN(CCc3c([nH]c4ccccc34)[C@@](C(=O)OC)(c3cc4c(cc3OC)N(C)[C@H]3[C@@](O)(C(=O)OC)[C@H](OC(C)=O)[C@]5(CC)C=CCN6CC[C@]43[C@@H]65)C2)C1 [Vinblastine, vinblastine, reference compound] |  | A (A is < 20%)
